Test results reported in PubChem BioAssay (NCI).
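GI50 marks 50% less growth. TGI denotes the concentration required for complete inhibition of growth.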

Columns and labels:
Test in all cases: NCI-60 cell line screen, 384-well format
786-0 renal = test system: 786-0 renal
A498 renal = test system: A498 renal
A549 NSCLC = test system: A549 NSCLC
ACHN renal = test system: ACHN renal
BT-549 breast = test system: BT-549 breast
CAKI-1 renal = test system: CAKI-1 renal
DU-145 prostate = test system: DU-145 prostate
HCT-116 colon = test system: HCT-116 colon
HL-60(TB) leukemia = test system: HL-60(TB) leukemia
HOP-92 NSCLC = test system: HOP-92 NSCLC
HS 578T breast = test system: HS 578T breast
HT29 colon = test system: HT29 colon
K-562 leukemia = test system: K-562 leukemia
KM12 colon = test system: KM12 colon
M14 melanoma = test system: M14 melanoma
MCF7 breast = test system: MCF7 breast
MDA-MB-231 breast = test system: MDA-MB-231 breast
MDA-MB-435 melanoma = test system: MDA-MB-435 melanoma
MOLT-4 leukemia = test system: MOLT-4 leukemia
NCI-H460 NSCLC = test system: NCI-H460 NSCLC
NCI-H522 lung = test system: NCI-H522 lung
OVCAR-3 ovarian = test system: OVCAR-3 ovarian
OVCAR-4 ovarian = test system: OVCAR-4 ovarian
OVCAR-5 ovarian = test system: OVCAR-5 ovarian
PC-3 prostate = test system: PC-3 prostate
SF-268 CNS = test system: SF-268 CNS
SK-MEL-2 melanoma = test system: SK-MEL-2 melanoma
SK-MEL-28 melanoma = test system: SK-MEL-28 melanoma
SN12C renal = test system: SN12C renal
SNB-19 CNS = test system: SNB-19 CNS
SNB-75 CNS = test system: SNB-75 CNS
SR leukemia = test system: SR leukemia
SW-620 colon = test system: SW-620 colon
TK-10 renal = test system: TK-10 renal
UACC-62 melanoma = test system: UACC-62 melanoma

## O=C(O)c1ccc2c(c1)CCCC(c1ccc(Cl)cc1Cl)=C2c1ccc(O[C@H]2CCN(CCCF)C2)cc1
786-0 renal
  GI50: 12.7 µM
  TGI: 25.3 µM
A498 renal
  GI50: 6.94 µM
  TGI: 19.6 µM
A549 NSCLC
  GI50: 9.67 µM
ACHN renal
  GI50: 11.9 µM
  TGI: 24.3 µM
BT-549 breast
  GI50: 12 µM
  TGI: 24.3 µM
CAKI-1 renal
  GI50: 13 µM
  TGI: 25.7 µM
DU-145 prostate
  GI50: 13.6 µM
  TGI: 26.6 µM
HCT-116 colon
  GI50: 5.87 µM
  TGI: 18.8 µM
HL-60(TB) leukemia
  GI50: 4.44 µM
  TGI: 16 µM
HOP-92 NSCLC
  GI50: 12.3 µM
  TGI: 24.8 µM
HS 578T breast
  GI50: 3.36 µM
  TGI: 18.1 µM
HT29 colon
  GI50: 12.2 µM
  TGI: 24.7 µM
K-562 leukemia
  GI50: 7.96 µM
  TGI: 20.7 µM
KM12 colon
  GI50: 11.6 µM
  TGI: 24.2 µM
M14 melanoma
  GI50: 11.1 µM
  TGI: 23.1 µM
MCF7 breast
  GI50: < 10 nM
MDA-MB-231 breast
  GI50: 14.8 µM
  TGI: 28.1 µM
MDA-MB-435 melanoma
  GI50: 12.2 µM
  TGI: 24.6 µM
MOLT-4 leukemia
  GI50: 3.61 µM
  TGI: 14.2 µM
NCI-H460 NSCLC
  GI50: 10.3 µM
  TGI: 22.2 µM
NCI-H522 lung
  GI50: 10.3 µM
  TGI: 21.9 µM
OVCAR-3 ovarian
  GI50: 10.1 µM
  TGI: 21.8 µM
OVCAR-4 ovarian
  GI50: 11.3 µM
  TGI: 23.5 µM
OVCAR-5 ovarian
  GI50: 15.2 µM
  TGI: 28.6 µM
PC-3 prostate
  GI50: 10.2 µM
  TGI: 21.9 µM
SF-268 CNS
  GI50: 14.8 µM
  TGI: 28.2 µM
SK-MEL-2 melanoma
  GI50: 17.4 µM
  TGI: 31.2 µM
SK-MEL-28 melanoma
  GI50: 11.7 µM
  TGI: 24 µM
SN12C renal
  GI50: 14.4 µM
  TGI: 27.5 µM
SNB-19 CNS
  GI50: 13.1 µM
  TGI: 26 µM
SNB-75 CNS
  GI50: 12.9 µM
  TGI: 25.6 µM
SR leukemia
  GI50: 2920 nM
  TGI: 10.8 µM
SW-620 colon
  GI50: 15.7 µM
  TGI: 29.4 µM
TK-10 renal
  GI50: 12.5 µM
  TGI: 25.2 µM
UACC-62 melanoma
  GI50: 13.5 µM
  TGI: 26.3 µM
